Source: patent EP1020531A2, “Use of spore adhesion assays in fungicide screening” (priority 1999, dated 2000)

Legend:
Candida albicans = details: dacron fibers; Vuddhakel et al. (1988); cited from earlier work
Puccinia recondita = assay: Germination-associated spore adhesion assay in microtiter plates (sulforhodamine B); type: cell-based; details: for EC50 (ppm): inhibition of adhesion, 0.05% Tween 20, 19°C, 4 hours; for inhibition of germination-associated adhesion: statement in words
[1] = system: Pyricularia oryzae appressoria; details: Inoue et al., Pesticide Science 19, 145-152 (1987); cited from earlier work
Magnaporthe grisea = type: cell-based; details: for EC50 (ppm): inhibition of adhesion, YEG, 25°C, 6 hours; for inhibition of germination-associated adhesion: statement in words

Compound | EC50 (ppm) (Puccinia recondita) | inhibition of germination-associated adhesion (Puccinia recondita) | EC50 (ppm) (Magnaporthe grisea) | inhibition of germination-associated adhesion (Magnaporthe grisea) | also measured
CCC(C)(C)c1ccc(CC(C)CN2C[C@@H](C)O[C@@H](C)C2)cc1 (stereo partly shown) [amorolfine] |  |  |  |  | Candida adherence (Candida albicans): inhibit Candida adherence
CC1=C(C(=O)Nc2ccccc2)SCCO1 [carboxin] | 0.081 ppm | inhibited germination-associated adhesion |  |  | 
Cn1c(=O)sc2cccc(Cl)c21 [chlobenthiazone] |  |  |  |  | adhesion of Pyricularia oryzae appressoria to barley leaves [1]: inhibited adhesion
N#CC(CCc1ccc(Cl)cc1)(Cn1cncn1)c1ccccc1 (stereo not shown) [fenbuconazole] | 9.2 ppm | little or no activity |  |  | 
CCCCC(C#N)(Cn1cncn1)c1ccc(Cl)cc1 (stereo not shown) [myclobutanil] | >10 ppm | little or no activity |  |  | 
CCCN(CCOc1c(Cl)cc(Cl)cc1Cl)C(=O)n1ccnc1 [prochloraz] |  |  | >10.0 ppm | little or no activity | 
Cc1nc(C(F)(F)F)c(C(=O)Nc2c(Br)cc(OC(F)(F)F)cc2Br)s1 [thifluzamide] | 0.043 ppm | inhibited germination-associated adhesion |  |  | 
COC(=O)NC(=S)Nc1ccccc1NC(=S)NC(=O)OC [thiophanate-methyl] |  |  | 7.5 ppm | little or no activity | 
Cc1cccc2sc3nncn3c12 [tricyclazole] |  |  |  |  | adhesion of Pyricularia oryzae appressoria to barley leaves [1]: inhibited adhesion
mancozeb | 0.56 ppm | inhibited germination-associated adhesion | 0.115 ppm | potent inhibitors of germination-associated adhesion | 
